Test results taken from patent US6034134A, “1-Amino-alkylcyclohexane NMDA receptor antagonists” (Merz + Co. GmbH & Co., priority 1998, dated 2000).
Like-named read-outs stand apart in the source and are kept apart here.

What was measured:
[1] = Traction reflex test (myorelaxant action) in mice, therapeutic index versus MES; type: in vivo; conditions: ED50 for traction reflex impairment divided by ED50 for MES; 30 min
Method: (§1) NMR female mice (18-28 g) housed 5 per cage were used for the maximal electroshock (MES) and motor impairment tests. […] All compounds were dissolved in 0.9% saline.
(§2) The MES test was performed together with tests for myorelaxant action (traction reflex) and motor coordination (rotarod). For the traction reflex test mice were placed with their forepaws on a horizontal rod and were required to place all 4 paws on the wire within 10 seconds. To test ataxia (motor coordination) mice were placed on rotarod (5 rpm) and were required to remain on the rod for 1 minute. […] These tests were followed by MES (100 Hz, 0.5 second shock duration, 50 mA shock intensity, 0.9 ms impulse duration, Ugo Basile) applied through corneal electrodes. The presence of tonic convulsions was scored (tonic extension of hind paws with minimum angle to the body of 90°). The aim was to obtain ED50 s for all parameters scored (anticonvulsive activity and motor side effects) with use of the Litchfield Wilcoxon test for quantal dose responses. Division of the ED50 for side effects (ataxia or myorelaxation) by the ED50 for antagonism of electroshock convulsions was used as a therapeutic index (TI). […]

cortical neurones = assay: Excitotoxicity: glutamate toxicity in cultured cortical neurones (MTT); type: cell-based, rat; conditions: Rattus norvegicus, Cortical neurone, 100 μM glutamate
Method: Cortical neurones were obtained from cerebral cortices of 17/18 day old fetal rats (Wistar), in general following the dissociation procedure described by. After short trypsinization and gentle trituration with fire-polished Pasteur pipettes, the cell suspension was washed by centrifugation. Cells were suspended in serum-free Neurobasal medium with B27 supplement (GIBCO) before plating onto poly-L-lysine (Sigma; 0.2 mg/ml, 20 h, 4° C.) and laminin (Sigma; 2 μg/ml, 1 h, 37° C.)-coated 96-well plates (Falcon, Primaria) at a density of 5×10^4 cells/well. Cortical neurones were maintained at 37° C. in humidified 10% CO2 /90% air. […] The medium was changed first after 4 days in vitro and then every 4 days by replacing 2/3 of the medium with astrocyte-conditioned medium. Cortical neurones between day 12 and 14 in culture were used for the experiments.
New-born rat astrocytes were isolated non-enzymatically according to the method of [24]. Briefly, both hemispheres were dissected from 2-day-old rats, passed through an 80 μm gauze, and triturated with Pasteur pipettes. Cell suspension was made in Dulbecco's modified essential medium (DMEM, Gibco) supplemented with 10% fetal calf serum (FCS, Hyclone), 2 mM glutamine (Gibco) and 50 μg/ml gentamycin and transferred into untreated, plastic culture flasks (Corning; […]). Two days after plating the flasks were shaken for 10 minutes on a rotary platform (150 U/min) to remove microglial cells. The cultures were grown to confluency within 14 days, and the culture medium was changed twice weekly. Thereafter, the glial monolayers were extensively washed with serum-free Neurobasal medium (Gibco) to remove the serum. Flasks were then shaken several times to remove oligodendrocytes and neurones. To obtain conditioned medium from primary astrocytes, the cultures were incubated with fresh Neurobasal medium supplemented with B27 andglutamine. Every 2-3 days the conditioned medium was collected and replaced by fresh medium up to 4 times.
Exposure to EAA was performed in serum-free Neurobasal medium containing 100 μM glutamate and the drug to be tested. After 20 h of incubation, the cytotoxic effect was morphologically examined under a phase contrast microscope and biochemically quantified by measuring cell viability with the MTT test (Promega). This calorimetric assay measures the reduction of a tetrazolium component (MTT) into an insoluble formazan product by the mitochondria of living cells. After incubation of the cortical neurones with the dye solution for approximately 1-4 hours, a solubilization solution was added to lyse the cells and solubilize the colored product (incubation overnight at 37° C., 10% CO2, 90% RH). These samples were then read using an Elisa plate reader (Thermomax, MWG Biotech) at a wavelength of 570 nm. The amount of color produced was directly proportional to the number of viable cells.
(§3) IC50 s in patch clamp, excitotoxicity, and binding studies were calculated according to the four parameter logistic equation using the Grafit computer program (Erithacus Software, England). Ki value for binding studies were then determined according to Cheng and Prusoff. Binding values presented are means±SEM of 3-5 determinations (each performed in duplicate). […] Pearson product moment correlation analysis (Sigma Stat, Jandel Scientific) was used to compare in vitro potencies and in vivo anticonvulsant activity.

[2] = Maximal electroshock (MES)-induced convulsions in mice; type: in vivo; conditions: Mus musculus, ip, 0.5 h, mice, i.p., read-out: MES ED50
Method: as §1, §2

NMDA receptor = assay: Patch clamp: NMDA-induced inward currents in cultured hippocampal neurones; type: cell-based, rat; conditions: read-out: Patch Clamp IC50
Method: Hippocampi were obtained from rat embryos (E20 to E21) and were then transferred to calcium and magnesium free Hank's buffered salt solution (Gibco) on ice. Cells were mechanically dissociated in 0.05% DNAase/0.3% ovomucoid (Sigma) following an 8 minute pre-incubation with 0.66% trypsin/0.1% DNAase (Sigma). The dissociated cells were then centrifuged at 18 ×g for 10 minutes, re-suspended in minimum essential medium (Gibco) and plated at a density of 150,000 cells cm^-2 onto poly-L-lysine (Sigma)-precoated plastic petri dishes (Falcon). The cells were nourished with NaHCO3 /HEPES-buffered minimum essential medium supplemented with 5% fetal calf serum and 5% horse serum (Gibco) and incubated at 37° C. with 5% CO2 at 95% humidity. […] Thereafter the medium was exchanged partially twice weekly.
Patch clamp recordings were made from these neurones with polished glass electrodes (4-6 m.OMEGA.) in the whole cell mode at room temperature (20-22° C.) with the aid of an EPC-7 amplifier (List). Test substances were applied by switching channels of a custom-made fast superfusion system with a common outflow (10-20 ms exchange times). The contents of the intracellular solution were as follows (mM): CsCl (120), TEACl (20), EGTA (10), MgCl2 (1), CaCl2 -(0.2), glucose (10), ATP(2), cAMP (0.25); pH was adjusted to 7.3 with CsOH or HC1. The extracellular solutions had the following basic composition (mM): NaCl (140), KCl (3), CaCl2 (0.2), glucose (10), HEPES (10), sucrose (4.5), tetrodotoxin (TTX 3*10^-4). Glycine (1 μM) was present in all solutions: a concentration sufficient to cause around 80-85% activation of glycineB receptors. Only results from stable cells were accepted for inclusion in the final analysis, i.e., following recovery of responses to NMDA by at least 75% of their depression by the antagonists tested.
as §3

[3] = mouse, in vivo, ip
Method: All animals were kept with water and food ad libitum under a 12 hour light-dark cycle (light on at 6 a.m.) and at a controlled temperature (20±0.5° C.). All e experiments were performed between 10 a.m. and 5 p.m. Tested agents were injected 30 min. i.p. before the induction of convulsions if not stated otherwise (see below). All compounds were dissolved in 0.9% saline.

[4] = Table 7, 20 h, read-out: Glut. Tox. IC50
[5] = Table 9, read-out: Glut Tox IC50
[6] = Table 8, 95% confidence limits in parentheses
[7] = Table 7, NMDA 200 μM with glycine 1 μM at -70 mV

Compound	TI Tract [1]	IC50 (cortical neurones; [4])	IC50 (cortical neurones; [5])	ED50 ([2]; Table 7, 30 min before)	ED50 [2, 6]	IC50 (NMDA receptor; [7])	IC50 (NMDA receptor; Table 9, NMDA-induced currents)	Min Lethality [3]
C[C@@H]1CC(C)(C)C[C@@](C)(N)C1 (relative stereo) [Mrz 2/607]	1.3	10.1 µM	10.1 µM	22.9 mg/kg	22.9 mg/kg	13.8 µM	13.8 µM	50 mg/kg
CCC[C@@]1(C)C[C@H](C)C[C@@](C)(N)C1 (relative stereo) [Mrz 2/618]	1.2	17.6 µM	17.6 µM	24 mg/kg	24 mg/kg	43.7 µM	57.5 µM	> 50 mg/kg
CCC[C@]1(C)C[C@@H](C)C[C@@](C)(N)C1 (relative stereo) [Mrz 2/619]	1.0	30.9 µM	30.9 µM	44.6 mg/kg	44.6 mg/kg	60.8 µM	60.9 µM	> 50 mg/kg
CC[C@@]1(C)C[C@H](C)C[C@@](C)(N)C1 (relative stereo) [Mrz 2/622]	1.1	19.3 µM	19.3 µM	21 mg/kg	21 mg/kg	64.8 µM	58.2 µM	50 mg/kg
CC[C@]1(C)C[C@@H](C)C[C@@](C)(N)C1 (relative stereo) [Mrz 2/624]	0.9	2.7 µM	2.7 µM	47.2 mg/kg	47.2 mg/kg	31 µM	31 µM	100 mg/kg
C[C@@H]1CCC[C@@](C)(N)C1 (relative stereo) [Mrz 2/625]	0.5	39.4 µM	39.4 µM	130 mg/kg	130 mg/kg	245 µM	245 µM	> 70 mg/kg
CCC[C@@H]1CCC[C@@](C)(N)C1 (relative stereo) [Mrz 2/627]	0.8	26.6 µM	26.6 µM	43.9 mg/kg	43.9 mg/kg	210 µM	150 µM	60 mg/kg
CCC[C@H]1CCC[C@@](C)(N)C1 (relative stereo) [Mrz 2/628]	0.8	27.3 µM	27.3 µM	73.2 mg/kg	73.2 mg/kg	126 µM	126 µM	> 60 mg/kg
CC[C@@H]1CCC[C@@](C)(N)C1 (relative stereo) [Mrz 2/629]	0.9	> 300 µM	> 300 µM	58.5 mg/kg	58.5 mg/kg	219 µM	219 µM	100 mg/kg
